{
  "source": "ChEMBL document CHEMBL4382229",
  "about": "“Benzofuran derivatives and their anti-tubercular, anti-bacterial activities” (Eur J Med Chem, 2019)",
  "key": {"[1]": {"system": "Mycobacterium tuberculosis", "assay": "Antitubercular activity against Mycobacterium tuberculosis H37Rv infected in BALB/c mouse assessed as reduction in bacterial load in lungs at 10 mg/kg, po administered once daily via gavage for 5 consecutive days per week for 2 weeks", "format": "functional"}, "[2]": {"system": "Mycobacterium tuberculosis", "assay": "Antitubercular activity against Mycobacterium tuberculosis Erdman infected in BALB/c mouse assessed as reduction in bacterial load in spleen at 25 mg/kg, po administered once daily via gavage starting from 27 days post infection for 5 consecutive days per week for 4 weeks", "format": "functional"}, "[3]": {"system": "Mycobacterium tuberculosis", "assay": "Antitubercular activity against Mycobacterium tuberculosis Erdman infected in BALB/c mouse assessed as reduction in bacterial load in lungs at 25 mg/kg, po administered once daily via gavage starting from 27 days post infection for 5 consecutive days per week for 4 weeks", "format": "functional"}, "Pseudomonas aeruginosa [4]": {"system": "Pseudomonas aeruginosa", "assay": "Antibacterial activity against Pseudomonas aeruginosa ATCC 27953 assessed as diameter of inhibition zone at 5 ug/ml after 24 hrs by agar disc diffusion method", "format": "functional", "conditions": "ATCC 27953, 24 h, read-out: IZ"}, "Escherichia coli [5]": {"system": "Escherichia coli", "assay": "Antibacterial activity against Escherichia coli NCIM 2064 assessed as zone of inhibition at 1 ug/ml after 24 hrs by agar diffusion method", "format": "functional", "conditions": "NCIM 2064, 24 h, read-out: IZ"}, "Escherichia coli [6]": {"system": "Escherichia coli", "assay": "Antibacterial activity against Escherichia coli assessed as diameter of inhibition zone at 250 ug/ml after 24 hrs by disc diffusion method", "format": "functional", "conditions": "read-out: DIZ"}, "Pseudomonas aeruginosa [7]": {"system": "Pseudomonas aeruginosa", "assay": "Antibacterial activity against Pseudomonas aeruginosa NCIB 8650 assessed as zone of inhibition at 1 ug/ml after 24 hrs by agar diffusion method", "format": "functional", "conditions": "NCIB 8650, 24 h, read-out: IZ"}, "Escherichia coli [8]": {"system": "Escherichia coli", "assay": "Antibacterial activity against Escherichia coli ATCC 25922 assessed as diameter of inhibition zone at 5 ug/ml after 24 hrs by agar disc diffusion method", "format": "functional", "conditions": "ATCC 25922, 24 h, read-out: IZ"}, "Bacillus subtilis [9]": {"system": "Bacillus subtilis", "assay": "Antibacterial activity against Bacillus subtilis NCIM 2439 assessed as zone of inhibition at 1 ug/ml after 24 hrs by agar diffusion method", "format": "functional", "conditions": "NCIM 2439, 24 h, read-out: IZ"}, "Staphylococcus aureus [10]": {"system": "Staphylococcus aureus", "assay": "Antibacterial activity against Staphylococcus aureus assessed as diameter of inhibition zone at 250 ug/ml after 24 hrs by disc diffusion method", "format": "functional", "conditions": "read-out: DIZ"}, "Staphylococcus aureus [11]": {"system": "Staphylococcus aureus", "assay": "Antibacterial activity against Staphylococcus aureus NCIM 2079 assessed as zone of inhibition at 1 ug/ml after 24 hrs by agar diffusion method", "format": "functional", "conditions": "NCIM 2079, 24 h, read-out: IZ"}, "Pseudomonas aeruginosa [12]": {"system": "Pseudomonas aeruginosa", "assay": "Potency index, ratio of streptomycin MIC to test compound MIC for Pseudomonas aeruginosa MTCC 1034", "format": "functional"}, "Pseudomonas aeruginosa [13]": {"system": "Pseudomonas aeruginosa", "assay": "Antibacterial activity against Pseudomonas aeruginosa MTCC 1034 after 24 hrs by broth dilution method", "format": "functional", "conditions": "MTCC 1034, 24 h"}, "Bacillus subtilis [14]": {"system": "Bacillus subtilis", "assay": "Antibacterial activity against Bacillus subtilis MTCC 1134 after 24 hrs by broth dilution method", "format": "functional", "conditions": "MTCC 1134, 24 h"}, "Bacillus subtilis [15]": {"system": "Bacillus subtilis", "assay": "Potency index, ratio of streptomycin MIC to test compound MIC for Bacillus subtilis MTCC 1134", "format": "functional"}, "Escherichia coli [16]": {"system": "Escherichia coli", "assay": "Potency index, ratio of streptomycin MIC to test compound MIC for Escherichia coli MTCC 1559", "format": "functional"}, "Escherichia coli [17]": {"system": "Escherichia coli", "assay": "Antibacterial activity against Escherichia coli MTCC 1559 after 24 hrs by broth dilution method", "format": "functional", "conditions": "MTCC 1559, 24 h"}, "[18]": {"system": "Mycobacterium tuberculosis", "assay": "Antitubercular activity against Mycobacterium tuberculosis Erdman infected in BALB/c mouse assessed as reduction in bacterial load in lungs at 300 mg/kg, po administered once daily via gavage starting from 27 days post infection for 5 consecutive days per week for 4 weeks", "format": "functional"}, "[19]": {"system": "Mycobacterium tuberculosis", "assay": "Antitubercular activity against Mycobacterium tuberculosis Erdman infected in BALB/c mouse assessed as reduction in bacterial load in spleen at 300 mg/kg, po administered once daily via gavage starting from 27 days post infection for 5 consecutive days per week for 4 weeks", "format": "functional"}, "[20]": {"system": "Mycobacterium tuberculosis", "assay": "Antitubercular activity against Mycobacterium tuberculosis H37Rv infected in BALB/c mouse assessed as reduction in bacterial load in lungs at 200 mg/kg, po administered once daily via gavage for 5 consecutive days per week for 2 weeks", "format": "functional"}, "[21]": {"system": "Mycobacterium tuberculosis", "assay": "microbe, parasite or virus in culture", "conditions": "MC2 7000, 144 h", "description": "Antimycobacterial activity against Mycobacterium tuberculosis MC2 7000 after 6 days by alamar blue assay"}, "Pseudomonas aeruginosa [22]": {"system": "Pseudomonas aeruginosa", "assay": "Antibacterial activity against Pseudomonas aeruginosa by broth dilution method", "format": "functional"}, "Staphylococcus aureus [23]": {"system": "Staphylococcus aureus", "assay": "Antibacterial activity against Staphylococcus aureus by broth dilution method", "format": "functional"}, "Bacillus subtilis [24]": {"system": "Bacillus subtilis", "assay": "Antibacterial activity against Bacillus subtilis by broth dilution method", "format": "functional"}, "Escherichia coli [25]": {"system": "Escherichia coli", "assay": "Potency index, ratio of ciprofloxacin MIC to test compound MIC for Escherichia coli", "format": "functional"}, "Escherichia coli [26]": {"system": "Escherichia coli", "assay": "Antibacterial activity against Escherichia coli by broth dilution method", "format": "functional"}, "Staphylococcus aureus [27]": {"system": "Staphylococcus aureus", "assay": "Potency index, ratio of ciprofloxacin MIC to test compound MIC for Staphylococcus aureus", "format": "functional"}, "Bacillus subtilis [28]": {"system": "Bacillus subtilis", "assay": "Potency index, ratio of ciprofloxacin MIC to test compound MIC for Bacillus subtilis", "format": "functional"}},
  "data": [
    {"smiles": "NNC(=O)c1ccncc1", "note": "[ISONIAZID]", "values": [
      {"measurement": "Activity", "setting": "[1]", "result": 6.7, "unit": "log10CFU"},
      {"measurement": "Activity", "setting": "[2]", "result": 2.5, "unit": "log10CFU"},
      {"measurement": "Activity", "setting": "[3]", "result": 1.1, "unit": "log10CFU"}
    ]},
    {"smiles": "O=C(N[C@H](CO)[C@H](O)c1ccc([N+](=O)[O-])cc1)C(Cl)Cl", "note": "[CHLORAMPHENICOL]", "values": [
      {"measurement": "zone of inhibition at 5 µg/mL", "setting": "Pseudomonas aeruginosa [4]", "result": "21 to 32", "unit": "mm"},
      {"measurement": "zone of inhibition at 1 µg/mL", "setting": "Escherichia coli [5]", "result": "21 to 32", "unit": "mm"},
      {"measurement": "zone of inhibition at 250 µg/mL", "setting": "Escherichia coli [6]", "result": 17, "unit": "mm"},
      {"measurement": "zone of inhibition at 1 µg/mL", "setting": "Pseudomonas aeruginosa [7]", "result": "21 to 32", "unit": "mm"},
      {"measurement": "zone of inhibition at 5 µg/mL", "setting": "Escherichia coli [8]", "result": "21 to 32", "unit": "mm"},
      {"measurement": "zone of inhibition at 1 µg/mL", "setting": "Bacillus subtilis [9]", "result": "21 to 32", "unit": "mm"},
      {"measurement": "zone of inhibition at 250 µg/mL", "setting": "Staphylococcus aureus [10]", "result": 27, "unit": "mm"},
      {"measurement": "zone of inhibition at 1 µg/mL", "setting": "Staphylococcus aureus [11]", "result": "21 to 32", "unit": "mm"}
    ]},
    {"smiles": "Cc1ccc(-c2cc(-c3cc4ccccc4o3)nc(N)n2)s1", "values": [
      {"measurement": "Ratio", "setting": "Pseudomonas aeruginosa [12]", "result": ">3"},
      {"measurement": "MIC", "setting": "Pseudomonas aeruginosa [13]", "result": "4.32 to 6.32", "unit": "µg/mL"},
      {"measurement": "MIC", "setting": "Bacillus subtilis [14]", "result": "4.32 to 6.32", "unit": "µg/mL"},
      {"measurement": "Ratio", "setting": "Bacillus subtilis [15]", "result": ">3"},
      {"measurement": "Ratio", "setting": "Escherichia coli [16]", "result": ">3"},
      {"measurement": "MIC", "setting": "Escherichia coli [17]", "result": "4.32 to 6.32", "unit": "µg/mL"}
    ]},
    {"smiles": "CNC(=O)c1c(-c2ccc(O)cc2)oc2ccc(O)c(CN3CCCCC3)c12", "values": [
      {"measurement": "Activity", "setting": "[18]", "result": 0.9, "unit": "log10CFU"},
      {"measurement": "Activity", "setting": "[19]", "result": 2.2, "unit": "log10CFU"},
      {"measurement": "Activity", "setting": "[20]", "result": 6.8, "unit": "log10CFU"},
      {"measurement": "MIC", "setting": "[21]", "result": 0.09, "unit": "µM"}
    ]},
    {"smiles": "Cc1ccc2occ(-c3cc4ccccc4oc3=O)c2c1", "values": [
      {"measurement": "MIC", "setting": "Pseudomonas aeruginosa [22]", "result": "6.25 to 100", "unit": "µg/mL"},
      {"measurement": "MIC", "setting": "Staphylococcus aureus [23]", "result": 0.2, "unit": "µg/mL"},
      {"measurement": "MIC", "setting": "Bacillus subtilis [24]", "result": 0.4, "unit": "µg/mL"},
      {"measurement": "Ratio", "setting": "Escherichia coli [25]", "result": ">=5"},
      {"measurement": "MIC", "setting": "Escherichia coli [26]", "result": 0.2, "unit": "µg/mL"},
      {"measurement": "Ratio", "setting": "Staphylococcus aureus [27]", "result": ">=5"},
      {"measurement": "Ratio", "setting": "Bacillus subtilis [28]", "result": ">=5"}
    ]}
  ]
}
